Data as given in article PMC11178787, “Development of a natural product optimization strategy for inhibitors against MraY, a promising antibacterial target” (Nature Communications, 2024).
In brackets after ≈: the same amount, converted by molar mass.

How the values were obtained:
Assay in all cases: microbe, parasite or virus in culture
Set-up in all cases: CLSI broth microdilution MIC in MHB-II
[1] = system: T1, Staphylococcus aureus #2310; details: Staphylococcus aureus, 18 h, read-out: MIC
T1 construct: #2310
Summary of the method: (§1)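 Minimum inhibitory concentrations come from a CLSI-recommended broth microdilution method using MHB-II. Bacteria at 5 × 10^5 cfu/mL were exposed to 2-fold serial compound dilutions (final DMSO under 1%) for 18 h at 37 °C. Reported values reflect the highest of three replicate trials or, for certain compounds, one trial.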

Enterococcus faecalis 23 = system: T2, Enterococcus faecalis 23; details: Enterococcus faecalis, 23, 18 h, read-out: MIC
T2 construct: 23
Summary of the method: as §1

Enterococcus faecalis 24 = system: T3, Enterococcus faecalis 24; details: Enterococcus faecalis, 24, 18 h, read-out: MIC
T3 construct: 24
Summary of the method: as §1

[2] = system: T4, Staphylococcus aureus #2932; details: Staphylococcus aureus, 18 h, read-out: MIC
T4 construct: #2932
Summary of the method: as §1

[3] = system: T5, Staphylococcus aureus #2071; details: Staphylococcus aureus, 18 h, read-out: MIC
T5 construct: #2071
Summary of the method: as §1

[4] = system: T6, Staphylococcus aureus #2931; details: Staphylococcus aureus, 18 h, read-out: MIC
T6 construct: #2931
Summary of the method: as §1

[5] = system: T7, Staphylococcus aureus #2933; details: Staphylococcus aureus, 18 h, read-out: MIC
T7 construct: #2933
Summary of the method: as §1

Enterococcus faecium 3 = details: Enterococcus faecium, 3, 18 h, read-out: MIC
Summary of the method: as §1

Enterococcus faecalis 28 = system: T8, Enterococcus faecalis 28; details: Enterococcus faecalis, 28, 18 h, read-out: MIC
T8 construct: 28
Summary of the method: as §1

Enterococcus faecium 7 = details: Enterococcus faecium, 7, 18 h, read-out: MIC
Summary of the method: as §1

[6] = system: T9, Staphylococcus aureus #2110; details: Staphylococcus aureus, 18 h, read-out: MIC
T9 construct: #2110
Summary of the method: as §1

Enterococcus faecalis 30 = system: T10, Enterococcus faecalis 30; details: Enterococcus faecalis, 30, 18 h, read-out: MIC
T10 construct: 30
Summary of the method: as §1

Enterococcus faecalis 25 = system: T11, Enterococcus faecalis 25; details: Enterococcus faecalis, 25, 18 h, read-out: MIC
T11 construct: 25
Summary of the method: as §1

[7] = system: T12, Staphylococcus aureus #2334; details: Staphylococcus aureus, 18 h, read-out: MIC
T12 construct: #2334
Summary of the method: as §1

[8] = system: T13, Staphylococcus aureus #1958; details: Staphylococcus aureus, 18 h, read-out: MIC
T13 construct: #1958
Summary of the method: as §1

[9] = system: T14, Staphylococcus aureus #2934; details: Staphylococcus aureus, 18 h, read-out: MIC
T14 construct: #2934
Summary of the method: as §1

Row | Compound | MIC [1] [µg/mL] | MIC (Enterococcus faecalis 23) [µg/mL] | MIC (Enterococcus faecalis 24) [µg/mL] | MIC [2] [µg/mL] | MIC [3] [µg/mL] | MIC [4] [µg/mL] | MIC [5] [µg/mL] | MIC (Enterococcus faecium 3) [µg/mL] | MIC (Enterococcus faecalis 28) [µg/mL] | MIC (Enterococcus faecium 7) [µg/mL] | MIC [6] [µg/mL] | MIC (Enterococcus faecalis 30) [µg/mL] | MIC (Enterococcus faecalis 25) [µg/mL] | MIC [7] [µg/mL] | MIC [8] [µg/mL] | MIC [9] [µg/mL]
1 | CCCCCCCCCCCCCCCC(=O)N[C@@H](CCCCN)C(=O)NCc1cccc(CN[C@H](C(=O)O)[C@H](O[C@@H]2O[C@H](CN)[C@@H](O)[C@H]2O)[C@H]2O[C@@H](n3ccc(=O)[nH]c3=O)[C@H](O)[C@@H]2O)c1 [compound 2, analogue 2] | 2 (≈ 2.14 µM) | 0.25 (≈ 0.268 µM) | 0.25 (≈ 0.268 µM) | 1 (≈ 1.07 µM) | 1 (≈ 1.07 µM) | 0.5 (≈ 0.535 µM) | 0.5 (≈ 0.535 µM) | 1 (≈ 1.07 µM) | < 0.06 | 2 (≈ 2.14 µM) | 2 (≈ 2.14 µM) | 0.25 (≈ 0.268 µM) | 0.25 (≈ 0.268 µM) | 1 (≈ 1.07 µM) | 1 (≈ 1.07 µM) | 0.5 (≈ 0.535 µM)
2 | CCCCCCCCCCCCCCCC(=O)N[C@@H](CCCNC(=N)N)C(=O)NCc1ccc(CN[C@H](C(=O)O)[C@H](O[C@@H]2O[C@H](CN)[C@@H](O)[C@H]2O)[C@H]2O[C@@H](n3ccc(=O)[nH]c3=O)[C@H](O)[C@@H]2O)cc1 [compound 3, analogue 3] | 2 (≈ 2.08 µM) | 0.13 (≈ 0.135 µM) | 0.13 (≈ 0.135 µM) | 2 (≈ 2.08 µM) |  | 1 (≈ 1.04 µM) | 1 (≈ 1.04 µM) | 1 (≈ 1.04 µM) | < 0.06 | 1 (≈ 1.04 µM) | 2 (≈ 2.08 µM) | 0.25 (≈ 0.26 µM) | 0.13 (≈ 0.135 µM) | 1 (≈ 1.04 µM) | 2 (≈ 2.08 µM) | 1 (≈ 1.04 µM)
3 | CCCCCCCCCCCCCCCC(=O)N[C@@H](CCCNC(=N)N)C(=O)NCc1cccc(CN[C@H](C(=O)O)[C@H](O[C@@H]2O[C@H](CN)[C@@H](O)[C@H]2O)[C@H]2O[C@@H](n3ccc(=O)[nH]c3=O)[C@H](O)[C@@H]2O)c1 [compound 4, analogue 4] | 2 (≈ 2.08 µM) | 0.13 (≈ 0.135 µM) | 0.13 (≈ 0.135 µM) | 2 (≈ 2.08 µM) | 1 (≈ 1.04 µM) | 1 (≈ 1.04 µM) | 1 (≈ 1.04 µM) | 1 (≈ 1.04 µM) | < 0.06 | 1 (≈ 1.04 µM) | 4 (≈ 4.16 µM) | 0.25 (≈ 0.26 µM) | 0.25 (≈ 0.26 µM) | 2 (≈ 2.08 µM) | 2 (≈ 2.08 µM) | 1 (≈ 1.04 µM)
4 | CCCCCCCCCCCCCCCC(=O)N[C@@H](CCCCN)C(=O)Nc1ccc(CN[C@H](C(=O)O)[C@H](O[C@@H]2O[C@H](CN)[C@@H](O)[C@H]2O)[C@H]2O[C@@H](n3ccc(=O)[nH]c3=O)[C@H](O)[C@@H]2O)cc1 [compound 5, analogue 5] | 1 (≈ 1.09 µM) | 0.13 (≈ 0.141 µM) | 0.25 (≈ 0.272 µM) | 1 (≈ 1.09 µM) | 0.5 (≈ 0.543 µM) | 0.25 (≈ 0.272 µM) | 0.5 (≈ 0.543 µM) | 0.5 (≈ 0.543 µM) | < 0.06 | 0.5 (≈ 0.543 µM) | 1 (≈ 1.09 µM) | 0.13 (≈ 0.141 µM) | 0.25 (≈ 0.272 µM) | 1 (≈ 1.09 µM) | 1 (≈ 1.09 µM) | 0.25 (≈ 0.272 µM)
5 | CCCCCCCCCCCCCCCC(=O)N[C@@H](CCCCN)C(=O)Nc1cccc(CN[C@H](C(=O)O)[C@H](O[C@@H]2O[C@H](CN)[C@@H](O)[C@H]2O)[C@H]2O[C@@H](n3ccc(=O)[nH]c3=O)[C@H](O)[C@@H]2O)c1 [compound 6, analogue 6] |  | 0.5 (≈ 0.543 µM) | 0.5 (≈ 0.543 µM) |  | 64 (≈ 69.6 µM) | 0.5 (≈ 0.543 µM) | 0.5 (≈ 0.543 µM) | 1 (≈ 1.09 µM) | 0.13 (≈ 0.141 µM) | 2 (≈ 2.17 µM) | 2 (≈ 2.17 µM) | 0.5 (≈ 0.543 µM) | 0.5 (≈ 0.543 µM) | 1 (≈ 1.09 µM) | 1 (≈ 1.09 µM) | 0.5 (≈ 0.543 µM)
6 | CCCCCCCCCCCCCCCC(=O)N[C@@H](CCCNC(=N)N)C(=O)Nc1ccc(CN[C@H](C(=O)O)[C@H](O[C@@H]2O[C@H](CN)[C@@H](O)[C@H]2O)[C@H]2O[C@@H](n3ccc(=O)[nH]c3=O)[C@H](O)[C@@H]2O)cc1 [compound 7, analogue 7] | 2 (≈ 2.11 µM) | 0.5 (≈ 0.527 µM) | 0.13 (≈ 0.137 µM) |  | 1 (≈ 1.05 µM) | 1 (≈ 1.05 µM) | 1 (≈ 1.05 µM) | 1 (≈ 1.05 µM) | < 0.06 | 0.5 (≈ 0.527 µM) | 2 (≈ 2.11 µM) | 0.25 (≈ 0.264 µM) | 0.25 (≈ 0.264 µM) | 2 (≈ 2.11 µM) | 1 (≈ 1.05 µM) | 1 (≈ 1.05 µM)
7 | CCCCCCCCCCCCCCCC(=O)N[C@@H](CCCNC(=N)N)C(=O)Nc1cccc(CN[C@H](C(=O)O)[C@H](O[C@@H]2O[C@H](CN)[C@@H](O)[C@H]2O)[C@H]2O[C@@H](n3ccc(=O)[nH]c3=O)[C@H](O)[C@@H]2O)c1 [compound 8, analogue 8] | 2 (≈ 2.11 µM) | 0.25 (≈ 0.264 µM) | 1 (≈ 1.05 µM) | 2 (≈ 2.11 µM) | 64 (≈ 67.5 µM) | 1 (≈ 1.05 µM) | 1 (≈ 1.05 µM) | 2 (≈ 2.11 µM) | < 0.06 | 1 (≈ 1.05 µM) | 2 (≈ 2.11 µM) | 0.5 (≈ 0.527 µM) | 0.5 (≈ 0.527 µM) |  | 2 (≈ 2.11 µM) | 1 (≈ 1.05 µM)
8 | C[C@H]1COc2c(N3CCN(C)CC3)c(F)cc3c(=O)c(C(=O)O)cn1c23 [levofloxacin] | > 32 | 1 (≈ 2.77 µM) | 1 (≈ 2.77 µM) | > 32 | 0.13 (≈ 0.36 µM) | 16 (≈ 44.3 µM) | > 32 | > 32 | 1 (≈ 2.77 µM) | 0.5 (≈ 1.38 µM) | > 32 | 1 (≈ 2.77 µM) | 0.5 (≈ 1.38 µM) | > 32 | > 32 | > 32
